From ChEMBL document CHEMBL1201862, “PubChem BioAssay data set” (2004) come the findings set out here.

The source made the active and inactive calls.

Common to all, as to assay type: functional
Assay [1] in a line: Luminescence Cell-Based Dose Confirmation HTS to Identify Activators of 5'UTR Stem-Loop Driven Alpha-Synuclein mRNA Translation in H4 Neuroglioblastoma Cells. [Related pubchem assays: 1829 (Project Summary), 1814 (Primary HTS)].
The target in assay [2] is Glutathione-S-transferase (Schistosoma japonicum, UniProt Q26513). The experiment in a line: GST-antibody interaction or FRET quenching – biochemical, TR-FRET, artefact control for Vif-APOBEC3G degradation inhibitor project, dose response (AID 1117362).
Glutathione-S-transferase, sequence (Q26513 whole entry): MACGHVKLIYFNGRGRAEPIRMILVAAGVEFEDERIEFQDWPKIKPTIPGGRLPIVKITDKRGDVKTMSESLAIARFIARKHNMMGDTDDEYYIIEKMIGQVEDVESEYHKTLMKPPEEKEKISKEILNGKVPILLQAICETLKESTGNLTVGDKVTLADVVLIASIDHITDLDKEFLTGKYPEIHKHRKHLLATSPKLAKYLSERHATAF
A short description of assay [3]: blockers of bursicon-stimulated LGR2 cAMP reporter – cell-based, HEK293, CRE-luciferase reporter, cherry pick, set 2, dose response (AID 743343).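 Also: transfected cells were stimulated with diluted bursicon conditioned medium after compound addition.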
Assay [4] concerns the target Homeodomain-interacting protein kinase 4 (Homo sapiens, UniProt Q8NE63).
The target in assay [5] is Testis-specific serine/threonine-protein kinase 1 (Homo sapiens, UniProt Q9BXA7).
Assay [6] has as its target Rho-associated protein kinase 1 (Homo sapiens, UniProt Q13464).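 Also: measured within a broad kinome-wide panel profiling many kinases.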
The target in assay [7] is Dual specificity protein kinase CLK4 (Homo sapiens, UniProt Q9HAZ1).
Assay [8] concerns the target Casein kinase I isoform alpha (Homo sapiens, UniProt P48729).
Assay [9] concerns the target Insulin-like growth factor 1 receptor (Homo sapiens, UniProt P08069). Put plainly: Navigating the Kinome. Panel member name: IGF1R.
For assay [10], the target named is Tyrosine-protein kinase Fer (Homo sapiens, UniProt P16591).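 Also: FER tested as one member of a kinome panel.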
Tyrosine-protein kinase Fer, sequence (P16591 whole entry): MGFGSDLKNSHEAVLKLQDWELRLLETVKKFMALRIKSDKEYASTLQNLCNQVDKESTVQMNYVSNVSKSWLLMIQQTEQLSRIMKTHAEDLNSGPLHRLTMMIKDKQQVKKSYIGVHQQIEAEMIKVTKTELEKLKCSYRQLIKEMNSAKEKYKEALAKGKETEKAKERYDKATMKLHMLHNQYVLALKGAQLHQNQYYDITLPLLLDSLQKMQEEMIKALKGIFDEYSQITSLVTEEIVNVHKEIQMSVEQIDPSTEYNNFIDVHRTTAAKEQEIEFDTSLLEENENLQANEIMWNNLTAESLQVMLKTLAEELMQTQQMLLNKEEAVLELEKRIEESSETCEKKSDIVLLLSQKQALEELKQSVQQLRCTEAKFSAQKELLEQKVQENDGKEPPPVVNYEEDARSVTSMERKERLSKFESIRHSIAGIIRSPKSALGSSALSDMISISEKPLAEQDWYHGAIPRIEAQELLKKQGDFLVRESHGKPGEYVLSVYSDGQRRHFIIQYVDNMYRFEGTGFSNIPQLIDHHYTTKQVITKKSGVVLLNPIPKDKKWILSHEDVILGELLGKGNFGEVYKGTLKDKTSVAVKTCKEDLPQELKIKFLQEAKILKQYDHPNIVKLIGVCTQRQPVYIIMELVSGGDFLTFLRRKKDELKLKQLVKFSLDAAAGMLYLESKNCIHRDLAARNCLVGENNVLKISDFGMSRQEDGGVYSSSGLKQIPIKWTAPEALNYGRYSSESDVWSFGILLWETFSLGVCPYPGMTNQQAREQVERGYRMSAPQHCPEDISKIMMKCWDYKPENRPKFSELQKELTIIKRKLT
Assay [11] addresses Delta-type opioid receptor (Homo sapiens, UniProt P41143). The experiment in a line: HTS Image-Based Screen for Antagonists of the DOR Receptor. [Related pubchem assays (depositor defined):AID1777, AID1785, AID1786, AID2133].
The target in assay [12] is T1, Sphingosine 1-phosphate receptor 4 (Homo sapiens, UniProt O95977).
T1 sequence (O95977 whole entry): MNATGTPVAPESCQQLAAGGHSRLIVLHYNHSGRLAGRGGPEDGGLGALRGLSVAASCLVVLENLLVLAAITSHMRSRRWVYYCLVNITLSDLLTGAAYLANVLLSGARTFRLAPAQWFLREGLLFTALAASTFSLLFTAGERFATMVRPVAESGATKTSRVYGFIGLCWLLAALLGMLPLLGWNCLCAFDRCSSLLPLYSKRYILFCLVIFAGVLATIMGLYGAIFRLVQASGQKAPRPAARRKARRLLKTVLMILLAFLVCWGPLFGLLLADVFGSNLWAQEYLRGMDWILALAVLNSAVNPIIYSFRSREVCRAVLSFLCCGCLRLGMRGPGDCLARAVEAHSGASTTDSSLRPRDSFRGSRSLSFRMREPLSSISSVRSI
The experiment in a line: Fluorescence dose response cell-based high throughput screening assay for antagonists of the Sphingosine 1-Phosphate Receptor 4 (S1P4). [Related pubchem assays: 1524 (Confirmation in triplicates.), 1510 (Primary screen.)].

Casein kinase I isoform alpha, sequence (P48729 whole entry, canonical isoform): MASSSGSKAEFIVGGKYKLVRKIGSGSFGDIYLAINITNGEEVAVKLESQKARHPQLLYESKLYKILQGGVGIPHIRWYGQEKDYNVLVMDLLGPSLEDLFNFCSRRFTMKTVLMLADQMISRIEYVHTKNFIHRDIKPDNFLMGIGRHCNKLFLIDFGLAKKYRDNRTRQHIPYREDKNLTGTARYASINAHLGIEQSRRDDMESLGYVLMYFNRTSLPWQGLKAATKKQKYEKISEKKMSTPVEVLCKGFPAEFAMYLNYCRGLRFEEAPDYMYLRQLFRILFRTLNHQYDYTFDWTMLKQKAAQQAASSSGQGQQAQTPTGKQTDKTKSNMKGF
Rho-associated protein kinase 1, sequence (Q13464 whole entry): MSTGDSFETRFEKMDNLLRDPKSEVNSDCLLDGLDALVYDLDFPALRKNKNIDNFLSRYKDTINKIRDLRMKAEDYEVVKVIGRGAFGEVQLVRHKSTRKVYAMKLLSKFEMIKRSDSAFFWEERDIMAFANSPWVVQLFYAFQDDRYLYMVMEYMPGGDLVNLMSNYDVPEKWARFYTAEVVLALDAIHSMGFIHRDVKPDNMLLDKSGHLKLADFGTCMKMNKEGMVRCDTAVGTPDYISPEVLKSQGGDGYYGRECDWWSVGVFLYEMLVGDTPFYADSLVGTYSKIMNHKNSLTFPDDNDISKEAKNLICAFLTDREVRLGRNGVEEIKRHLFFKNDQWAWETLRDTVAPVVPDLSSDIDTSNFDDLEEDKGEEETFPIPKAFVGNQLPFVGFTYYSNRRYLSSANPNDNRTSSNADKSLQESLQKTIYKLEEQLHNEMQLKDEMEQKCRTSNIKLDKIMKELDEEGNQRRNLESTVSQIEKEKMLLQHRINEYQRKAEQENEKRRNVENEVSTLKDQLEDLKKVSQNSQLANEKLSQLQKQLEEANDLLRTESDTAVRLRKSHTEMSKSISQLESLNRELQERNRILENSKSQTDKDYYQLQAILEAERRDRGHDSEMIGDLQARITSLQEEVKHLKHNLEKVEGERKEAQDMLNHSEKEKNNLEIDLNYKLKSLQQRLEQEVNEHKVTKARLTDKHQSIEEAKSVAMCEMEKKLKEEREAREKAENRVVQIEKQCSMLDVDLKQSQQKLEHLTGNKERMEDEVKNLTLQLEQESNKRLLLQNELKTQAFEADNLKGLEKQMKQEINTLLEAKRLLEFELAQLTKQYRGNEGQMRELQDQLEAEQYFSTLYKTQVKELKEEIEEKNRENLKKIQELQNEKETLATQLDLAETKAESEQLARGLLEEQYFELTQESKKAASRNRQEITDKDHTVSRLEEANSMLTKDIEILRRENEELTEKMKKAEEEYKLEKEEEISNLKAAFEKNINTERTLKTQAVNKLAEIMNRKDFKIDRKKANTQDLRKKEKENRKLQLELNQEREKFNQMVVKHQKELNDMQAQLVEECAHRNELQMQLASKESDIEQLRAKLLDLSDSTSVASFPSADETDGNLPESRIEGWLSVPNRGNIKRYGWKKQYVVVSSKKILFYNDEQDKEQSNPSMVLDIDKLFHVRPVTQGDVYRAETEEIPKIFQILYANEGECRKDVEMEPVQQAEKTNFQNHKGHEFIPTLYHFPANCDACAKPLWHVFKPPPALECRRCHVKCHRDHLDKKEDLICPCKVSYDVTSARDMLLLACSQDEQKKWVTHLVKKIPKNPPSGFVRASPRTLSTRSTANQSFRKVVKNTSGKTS
Insulin-like growth factor 1 receptor, sequence (P08069 31-736 limits assumed): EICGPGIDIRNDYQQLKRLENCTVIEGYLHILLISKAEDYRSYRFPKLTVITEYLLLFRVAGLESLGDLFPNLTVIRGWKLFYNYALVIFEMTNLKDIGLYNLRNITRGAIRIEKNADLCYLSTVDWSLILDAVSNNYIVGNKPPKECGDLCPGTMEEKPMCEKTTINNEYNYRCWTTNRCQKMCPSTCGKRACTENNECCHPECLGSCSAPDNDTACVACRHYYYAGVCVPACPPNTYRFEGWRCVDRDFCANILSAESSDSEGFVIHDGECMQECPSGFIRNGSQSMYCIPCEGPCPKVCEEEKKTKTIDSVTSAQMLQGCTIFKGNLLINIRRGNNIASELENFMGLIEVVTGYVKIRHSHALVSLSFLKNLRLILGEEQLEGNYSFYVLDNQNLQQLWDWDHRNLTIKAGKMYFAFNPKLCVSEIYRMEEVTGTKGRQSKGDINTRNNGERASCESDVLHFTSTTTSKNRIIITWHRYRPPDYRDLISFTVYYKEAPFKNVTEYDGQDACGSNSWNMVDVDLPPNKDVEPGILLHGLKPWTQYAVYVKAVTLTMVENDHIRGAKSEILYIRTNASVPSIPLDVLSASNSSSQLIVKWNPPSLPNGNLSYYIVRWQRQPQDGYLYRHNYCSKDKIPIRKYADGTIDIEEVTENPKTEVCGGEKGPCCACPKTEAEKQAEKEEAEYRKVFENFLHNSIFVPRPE
Insulin-like growth factor 1 receptor, sequence (P08069 741-1367 limits assumed): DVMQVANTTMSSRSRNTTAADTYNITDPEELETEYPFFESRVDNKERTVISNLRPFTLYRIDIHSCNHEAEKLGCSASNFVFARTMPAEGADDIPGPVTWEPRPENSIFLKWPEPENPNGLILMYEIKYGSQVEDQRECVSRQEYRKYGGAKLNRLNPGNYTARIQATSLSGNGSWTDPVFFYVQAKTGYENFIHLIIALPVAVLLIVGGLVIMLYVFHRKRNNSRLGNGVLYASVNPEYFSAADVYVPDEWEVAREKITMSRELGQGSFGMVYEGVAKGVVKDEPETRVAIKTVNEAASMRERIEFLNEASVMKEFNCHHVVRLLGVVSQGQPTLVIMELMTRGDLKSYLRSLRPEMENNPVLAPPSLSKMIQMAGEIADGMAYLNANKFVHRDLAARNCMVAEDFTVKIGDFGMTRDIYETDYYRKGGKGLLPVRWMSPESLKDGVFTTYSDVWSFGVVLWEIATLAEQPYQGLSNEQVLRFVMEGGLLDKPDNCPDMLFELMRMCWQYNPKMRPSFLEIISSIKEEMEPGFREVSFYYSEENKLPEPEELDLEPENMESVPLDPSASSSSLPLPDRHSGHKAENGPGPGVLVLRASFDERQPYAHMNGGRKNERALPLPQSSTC
Delta-type opioid receptor, sequence (P41143 whole entry): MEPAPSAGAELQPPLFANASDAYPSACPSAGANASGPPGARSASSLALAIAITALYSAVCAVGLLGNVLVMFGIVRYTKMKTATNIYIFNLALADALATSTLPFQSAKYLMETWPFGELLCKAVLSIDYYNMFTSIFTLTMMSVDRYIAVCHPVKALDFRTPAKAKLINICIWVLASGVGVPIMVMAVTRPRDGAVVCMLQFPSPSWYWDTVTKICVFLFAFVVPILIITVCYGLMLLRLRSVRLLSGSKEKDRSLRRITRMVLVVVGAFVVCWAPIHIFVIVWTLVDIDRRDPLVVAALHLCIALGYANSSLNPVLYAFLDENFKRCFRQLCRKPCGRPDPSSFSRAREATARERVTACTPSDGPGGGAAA
Homeodomain-interacting protein kinase 4, sequence (Q8NE63 whole entry): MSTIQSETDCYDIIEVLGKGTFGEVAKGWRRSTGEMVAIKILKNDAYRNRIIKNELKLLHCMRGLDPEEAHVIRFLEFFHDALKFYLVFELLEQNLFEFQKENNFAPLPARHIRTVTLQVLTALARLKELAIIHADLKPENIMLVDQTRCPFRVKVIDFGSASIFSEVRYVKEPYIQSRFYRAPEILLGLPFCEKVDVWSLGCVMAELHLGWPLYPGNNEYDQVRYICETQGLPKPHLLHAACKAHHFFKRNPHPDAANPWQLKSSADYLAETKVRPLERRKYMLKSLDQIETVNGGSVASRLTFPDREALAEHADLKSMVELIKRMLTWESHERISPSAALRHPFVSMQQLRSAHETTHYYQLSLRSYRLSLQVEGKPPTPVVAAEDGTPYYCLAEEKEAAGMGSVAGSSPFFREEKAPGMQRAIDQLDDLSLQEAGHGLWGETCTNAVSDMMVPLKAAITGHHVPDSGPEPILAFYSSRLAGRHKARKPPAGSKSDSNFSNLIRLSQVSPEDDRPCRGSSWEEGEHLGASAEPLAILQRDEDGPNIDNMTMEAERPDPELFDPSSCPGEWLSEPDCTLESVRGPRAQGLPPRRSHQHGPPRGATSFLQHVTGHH

As usually defined, the EC50 is the concentration at which the effect is half-maximal. The low end stands for greater potency, the high end for weaker potency. The term IC50 denotes the midpoint of a concentration-inhibition curve. Consider `CN(C)c1ncc(C2=C(Cl)C(=O)C(N3CCCC3)=C(Cl)C2=O)s1`, for which the EC50 in assay [1] is > 120000 nM (not active). Besides, the 50% inhibitory concentration (IC50) in assay [2] is > 100000 nM (active).

A word on the AC50: it is the concentration giving half of the maximal activity seen. Consider `Cc1cnc(NC(=O)c2sc3ccccc3c2Cl)s1`, for which the concentration at half-maximal activity (AC50) in assay [3] was 3070 nM (active).

By Ki is commonly meant a dissociation constant, usually derived from enzyme kinetics or from competition with a known ligand. As for `O=C1NC(=S)SC1=C1C(=O)Nc2ccc(Br)cc21`, the Ki in assay [4] was 631 nM (active); in [5], > 1580 nM (inactive); in assay [6], 5010 nM (active); in assay [7], 631 nM (active); in assay [8], > 6310 nM (inactive); in assay [9] it was > 2000 nM (inactive). The Ki in assay [10] is > 1580 nM (inactive).

Consider `Cc1ccc(Nc2cc(C)nn2-c2nc(C)cc(O)n2)cc1`, for which the IC50 in assay [11] was > 32000 nM (inactive); in assay [12], 170 nM (active).
